Test results from paper PMC7528081, “The electrophysiological effect of cannabidiol on hERG current and in guinea-pig and rabbit cardiac preparations” (Scientific Reports, 2020).

These compounds were tested against T1, hERG potassium channel (Homo sapiens, UniProt Q12809) (assay: automated whole-cell patch clamp (Patchliner), HEK […] cells expressing hERG, room temperature).
T1 construct: gene KCNH2
T1 sequence (Q12809 whole entry): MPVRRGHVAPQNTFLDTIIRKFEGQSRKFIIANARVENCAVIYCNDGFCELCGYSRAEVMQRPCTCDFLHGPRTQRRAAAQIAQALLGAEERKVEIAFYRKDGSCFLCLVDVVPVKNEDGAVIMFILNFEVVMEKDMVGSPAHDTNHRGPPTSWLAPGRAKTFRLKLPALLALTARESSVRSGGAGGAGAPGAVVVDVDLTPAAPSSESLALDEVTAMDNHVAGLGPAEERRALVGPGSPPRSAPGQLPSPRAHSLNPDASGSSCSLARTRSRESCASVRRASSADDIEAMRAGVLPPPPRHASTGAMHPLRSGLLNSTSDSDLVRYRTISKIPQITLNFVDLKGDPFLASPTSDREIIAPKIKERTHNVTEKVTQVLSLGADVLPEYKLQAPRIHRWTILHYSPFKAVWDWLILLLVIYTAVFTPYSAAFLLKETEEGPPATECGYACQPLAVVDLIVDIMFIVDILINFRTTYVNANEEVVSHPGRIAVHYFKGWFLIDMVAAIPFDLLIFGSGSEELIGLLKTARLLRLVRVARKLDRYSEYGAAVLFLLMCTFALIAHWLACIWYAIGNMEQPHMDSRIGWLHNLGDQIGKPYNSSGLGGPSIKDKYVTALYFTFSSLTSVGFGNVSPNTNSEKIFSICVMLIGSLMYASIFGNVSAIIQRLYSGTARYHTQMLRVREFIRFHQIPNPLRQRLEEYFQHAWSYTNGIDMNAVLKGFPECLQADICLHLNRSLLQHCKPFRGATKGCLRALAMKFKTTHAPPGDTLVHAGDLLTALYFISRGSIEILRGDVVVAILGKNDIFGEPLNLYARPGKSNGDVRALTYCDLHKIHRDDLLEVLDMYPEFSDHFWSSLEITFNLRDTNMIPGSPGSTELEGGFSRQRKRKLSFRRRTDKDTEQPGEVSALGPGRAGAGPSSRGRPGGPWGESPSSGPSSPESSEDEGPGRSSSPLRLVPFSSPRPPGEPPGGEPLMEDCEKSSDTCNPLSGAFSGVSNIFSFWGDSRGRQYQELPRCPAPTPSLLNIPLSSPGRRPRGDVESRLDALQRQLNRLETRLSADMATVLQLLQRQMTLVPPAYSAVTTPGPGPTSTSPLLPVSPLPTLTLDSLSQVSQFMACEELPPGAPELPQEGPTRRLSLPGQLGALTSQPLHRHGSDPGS
Type: cell-based
Work on CCCCCc1cc(O)c2c(c1)OC(C)(C)[C@@H]1CCC(C(=O)O)=C[C@@H]21 [11-nor-9-carboxy-tetrahydrocannabinol] yielded an IC50 of 65.4 ± 3.82 µM. With C=C(C)[C@@H]1CCC(C)=C[C@H]1c1c(O)cc(CCCCC)cc1O [cannabidiol] the IC50 was 2.07 ± 0.12 µM. Work on CCCCCc1cc(O)c2c(c1)OC(C)(C)[C@@H]1CCC(C)=C[C@@H]21 [tetrahydrocannabinol] yielded an IC50 of 10.3 ± 0.55 µM.
